Data from US20040229791A1, “Compositions and methods of modulating TGF-beta activity by fatty acids” (priority 2002, published 2004).

Target: T1, TGF-β1-α2M* complex (Homo sapiens, UniProt P01023)
T1 construct: was purified from pooled citrate-treate human plasma; from tissue; host or cells: pooled citrate-treated human plasma
T1 sequence (P01023 24-1474): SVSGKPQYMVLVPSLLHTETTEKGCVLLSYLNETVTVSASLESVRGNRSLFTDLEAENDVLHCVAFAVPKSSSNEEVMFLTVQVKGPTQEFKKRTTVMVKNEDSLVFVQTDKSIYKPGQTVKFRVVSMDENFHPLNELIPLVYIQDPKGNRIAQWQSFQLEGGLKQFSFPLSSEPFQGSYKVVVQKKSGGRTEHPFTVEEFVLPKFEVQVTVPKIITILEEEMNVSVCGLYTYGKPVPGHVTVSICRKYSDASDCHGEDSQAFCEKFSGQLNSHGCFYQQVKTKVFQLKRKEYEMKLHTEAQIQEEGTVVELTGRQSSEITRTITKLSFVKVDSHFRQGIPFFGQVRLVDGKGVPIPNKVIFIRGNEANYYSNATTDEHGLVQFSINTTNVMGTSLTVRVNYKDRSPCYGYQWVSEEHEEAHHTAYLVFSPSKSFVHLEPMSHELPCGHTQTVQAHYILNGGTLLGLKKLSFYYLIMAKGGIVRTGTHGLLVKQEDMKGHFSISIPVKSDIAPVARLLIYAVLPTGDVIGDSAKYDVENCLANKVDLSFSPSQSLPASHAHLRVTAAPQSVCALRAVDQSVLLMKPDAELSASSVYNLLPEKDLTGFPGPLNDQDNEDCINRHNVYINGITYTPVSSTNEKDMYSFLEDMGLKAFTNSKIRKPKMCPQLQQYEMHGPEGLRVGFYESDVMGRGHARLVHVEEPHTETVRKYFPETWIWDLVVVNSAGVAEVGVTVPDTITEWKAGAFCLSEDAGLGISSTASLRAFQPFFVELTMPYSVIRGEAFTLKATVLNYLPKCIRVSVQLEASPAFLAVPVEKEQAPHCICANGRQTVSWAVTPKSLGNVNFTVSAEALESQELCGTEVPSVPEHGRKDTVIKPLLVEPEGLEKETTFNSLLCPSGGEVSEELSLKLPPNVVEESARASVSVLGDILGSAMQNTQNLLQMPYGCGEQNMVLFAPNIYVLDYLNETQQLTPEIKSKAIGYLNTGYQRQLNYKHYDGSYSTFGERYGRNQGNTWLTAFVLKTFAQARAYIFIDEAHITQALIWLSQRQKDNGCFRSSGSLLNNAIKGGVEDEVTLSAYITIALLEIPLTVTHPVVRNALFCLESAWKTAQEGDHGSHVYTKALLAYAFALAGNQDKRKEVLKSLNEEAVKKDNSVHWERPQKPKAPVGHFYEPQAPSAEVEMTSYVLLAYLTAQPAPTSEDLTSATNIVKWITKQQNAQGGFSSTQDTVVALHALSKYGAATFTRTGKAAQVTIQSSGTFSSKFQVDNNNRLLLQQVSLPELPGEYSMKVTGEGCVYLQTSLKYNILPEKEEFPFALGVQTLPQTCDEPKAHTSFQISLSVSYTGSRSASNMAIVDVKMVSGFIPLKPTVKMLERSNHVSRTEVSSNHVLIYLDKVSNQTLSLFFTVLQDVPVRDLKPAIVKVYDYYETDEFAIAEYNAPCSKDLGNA
Experiment: Inhibition of 125I-TGF-β1 and α2M* complex formation (5% non-denaturing PAGE, autoradiography)
Format: binding
Procedure: Saturated and unsaturated fatty acids are present in plasma and tissues (25,26). The effects of various concentrations of saturated fatty acids on the formation of complexes between ^125I-TGF ? β1 and ? 2M* were examined. ^125I-TGF- ? 1 (1 nM) was incubated μg/ml) in the presence of various concentrations of n-caprylic acid ([…]), lauric acid (12 carbon atoms), myristic acid (14 carbon atoms), palmitic acid (16 carbon atoms) and stearic acid (18 carbon atoms). After 30 min at room temperature, the reaction mixture was analyzed by 5% non-denaturing PAGE and autoradiography, a standard method form determining complex formation between TGF-β and α2M* (12). […] At 100 μM, it inhibited 20% of the complex formation between TGF ? β1 and α2M*. Esterification consistently abolished the inhibitory activities of the fatty acids.
Complex formation of ^125I-TGF-β and ? 2M*—The reaction mixture contained 10 μg of . α2M*, ˜1 nM of ^125I-TGF- ? 1, ^125I-TGF ? β2 or ^125I-TGF ? acids (dissolved in 100% ethanol) in 0.05 ml of 50 mM HEPES-NaOH buffer, pH 7.4. The final concentration of ethanol in the reaction mixture was 0.5%. These fatty acids and fatty acid derivatives were soluble under the experimental conditions. After 30 min at room temperature, the complex formation of ^125I-TGF- ? and. α2M* was determined by 5% non-denaturing polyacrylamide gel electrophoresis (PAGE) or by 7.5% SDS-PAGE following cross-linking by 0.6 mM DSS. After electrophoresis, the gel was stained with Coomassie blue and analyzed by autoradiography. The ^125I-TGF- ? - ? 2M* complex which co-migrated with free ? 2M* was quantified using a PhosphoImager (Fuji).

CCCCCC/C=C\CCCCCCCC(=O)O [palmitoleic acid]
activity compared with saturated counterparts of identical chain length: weaker than their saturated counterparts
